# Laboratory results reported in US20150141380A1, “INHIBITORS OF ERK FOR DEVELOPMENTAL DISORDERS OF NEURONAL CONNECTIVITY” (CASE WESTERN RESERVE UNIVERSITY, priority 2010, published 2015).
# “Also recorded” adds a separate entry of the source.
# Experiments:
# [1] = test system: fmr1 knockout mice; assay: audiogenic seizures in the fmr1 knockout transgenic mouse model of Fragile X syndrome (Example 1); format: in vivo
# Description: Male fmr1 knockout mice were bred and tested at 21 days old. All mice were acclimated to the environment, examined, handled, and weighed prior to initiation of the study to assure adequate health and suitability and to minimize non-specific stress associated with manipulation. During the course of the study, 12/12 light/dark cycles were maintained. The room temperature was maintained between 20 and 23° C. with a relative humidity maintained around 50%. Chow and water were provided ad libitum for the duration of the study. Each mouse was randomly assigned across treatment groups. The testing was performed during the animals' light cycle phase. SL327 (Sigma Aldrich, 400 mg/kg) was dissolved in 5% Tween80 and saline and administered i.p. at a dose volume of 10 ml/kg 30 min prior to test. Mice were individually placed in a Plexiglas chamber and allowed to explore for 15 sec following which they were exposed to a 125 dB tone for 2 minutes, followed by 1 minute of no sound, and then a further 2 minute tone. The mice were scored based on their response, latency, and seizure intensity: […]
# [2] = test system: FMRI knockout mice; assay: audiogenic seizure test in FMRI knockout mice (Example 2); format: in vivo
# Description: Male FMRI knockout mice were bred at PsychoGenies and tested at 21 days old. All mice were acclimated to the environment, examined, handled, and weighed prior to initiation of the study to assure adequate health and suitability and to minimize non-specific stress associated with manipulation. During the course of the study, 12/12 light/dark cycles were maintained. The room temperature was maintained between 20 and 23° C. with a relative humidity maintained around 50%. Chow and water were provided ad libitum for the duration of the study. Each mouse was randomly assigned across treatment groups. The testing was performed during the animals' light cycle phase
# The following compounds were used.
# Mice were individually placed in a Plexiglas chamber and allowed to explore for 15 sec following which they were exposed to a 125 dB tone for 2 minutes, followed by 1 minute of no sound, and then a further 2 minute tone. The mice were scored based on their response, latency, and seizure intensity:
# Data were analyzed by analysis of variance (ANOVA) followed by post-hoc comparisons with Fisher Tests when appropriate. An effect was considered significant if p<0.05. Data are presented as the mean±standard error of the mean.
# [3] = perillyl alcohol 25 mg/kg i.p., 60 min prior to testing
# [4] = perillyl alcohol 50 mg/kg i.p., 60 min prior to testing
# [5] = MPEP 30 mg/kg i.p., 30 min prior to testing
structure (smiles),measurement,setting,value
"N#C/C(=C(/N)Sc1ccc(N)cc1)c1ccccc1C(F)(F)F [SL327, (2Z)-3-amino-3-[(4-aminophenyl)sulfanyl]-2-[2-(trifluoromethyl)phenyl]prop-2-enenitrile]",mean seizure score compared to vehicle,[1]; SL327 400 mg/kg i.p.,significantly lower seizure score
same,survival,[1]; SL327 400 mg/kg i.p.,All mice receiving SL327 survived
same,survival rate following testing,[1]; SL327 400 mg/kg i.p.,100%
same,audiogenic seizure activity,"[1]; SL327 400 mg/kg i.p. 30 min prior to test, male fmr1 knockout mice, 21 days old, vs Tween80 vehicle, 400 mg/kg",absence of any audiogenic seizure activity; also recorded: completely inhibits all seizure activity; also recorded: seizure activity was completely prevented
same,latency to seizure onset,"[1]; SL327 400 mg/kg i.p., 240 sec = maximum total time of audiogenic stimulation, given to animals with no response",> 240 s
same,seizure score,"[1]; SL327 400 mg/kg i.p., scale 0 (no response) to 5 (respiratory arrest)",0
"C=C(C)[C@@H]1CC=C(CO)CC1 [perillyl alcohol, [(4S)-4-(prop-1-en-2-yl)cyclohex-1-en-1-yl]methanol]",latency to onset of seizure compared to respective vehicle,[2]; [3],significantly delayed the onset; also recorded: increased the latency to seizure
same,latency to respiratory arrest compared to respective vehicle,[2]; [3],significantly delayed the onset; also recorded: significantly prolonged the latency to respiratory arrest
same,mean seizure score compared to vehicle,[2]; [3],attenuated overall seizure score; also recorded: significantly decreased seizure score
same,latency to onset of seizure compared to respective vehicle,[2]; [4],significantly delayed the onset; also recorded: increased the latency to seizure
same,latency to respiratory arrest compared to respective vehicle,[2]; [4],significantly delayed the onset; also recorded: significantly prolonged the latency to respiratory arrest
same,mean seizure score compared to vehicle,[2]; [4],attenuated overall seizure score; also recorded: significantly decreased seizure score
Cc1cccc(C#Cc2ccccc2)n1.Cl [MPEP],respiratory distress during testing,[2]; MPEP 30 mg/kg i.p.,no respiratory distress
same,latency to onset of seizure compared to respective vehicle,[2]; [5],significantly delayed the onset; also recorded: increased the latency to seizure
same,latency to respiratory arrest compared to respective vehicle,[2]; [5],significantly delayed the onset; also recorded: significantly prolonged the latency to respiratory arrest
same,mean seizure score compared to vehicle,[2]; [5],attenuated overall seizure score; also recorded: significantly decreased seizure score
same,latency to respiratory arrest,"[2]; MPEP 30 mg/kg i.p., 240 sec given to animals with no response",240 s
same,clinical signs or toxicity during pretreatment or testing,"[2]; i.p., MPEP HCI 30 mg/kg, perillyl alcohol 25 and 50 mg/kg",No clinical signs or toxicity were observed
